# Source: PMC12006171, “Marsupial cathelicidins: characterization, antimicrobial activity and evolution in this unique mammalian lineage” (Frontiers in Immunology, 2025)
# Like-named read-outs stand apart in the source and are kept apart here. Where a SMILES comes first, the peptide text is derived from it.
# How the values were obtained:
# Type in all cases: cell-based
# [1] = tested on: Pseudomonas aeruginosa clinical isolate - animal; experiment: microbe, parasite or virus in culture
# Summary of the method: (§1)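 Broth microdilution following CLSI M07-A/M26A, using peptides at 64–0.125 μg/mL final in MHB, with or without 10% lysed horse blood and with or without Ca/Mg cations (MH II B). Inoculum 5 x 10^5 CFU/mL, incubated 20–24 h at 35 °C; MIC is lowest concentration preventing visible growth, MBC by colony counts versus starting inoculum.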
# [2] = tested on: Pseudomonas aeruginosa ATCC 27853; experiment: microbe, parasite or virus in culture
# Summary of the method: as §1
# [3] = tested on: Staphylococcus aureus clinical isolate - animal; experiment: microbe, parasite or virus in culture
# Summary of the method: as §1
# [4] = tested on: Escherichia coli ATCC 25922; experiment: microbe, parasite or virus in culture
# Summary of the method: as §1
# [5] = tested on: Staphylococcus aureus ATCC 29213; experiment: microbe, parasite or virus in culture
# Summary of the method: as §1
# [6] = tested on: Escherichia coli clinical isolate - animal; experiment: microbe, parasite or virus in culture
# Summary of the method: as §1
# [7] = tested on: Staphylococcus aureus clinical isolate – animal, methicillin-resistant (MRSA)
# Method: (§2) Antimicrobial testing of 78 cathelicidin MPs was performed in two phases as outlined in Figure 1 . In phase I, 40 peptides (27 extant and 13 ancestral) were selected for testing based on rank (outlined above) and similarity to published marsupial cathelicidins with known antimicrobial activity ([33], [41]–[43]). These peptides were tested against nine bacteria (Staphylococcus aureus ATCC 29213 and clinical isolate, Escherichia coli ATCC 25922 and clinical isolate, Pseudomonas aeruginosa ATCC 27853 and clinical isolate, Streptococcus agalactiae ATCC 12386 and clinical isolate, Streptococcus pneumoniae ATCC 49619) and three fungi (Candida krusei ATCC 6258, Candida parapsilosis ATCC 22019, and Candida albicans clinical isolate). Details regarding these strains are available in Supplementary Table 4 . The antimicrobial activity of cathelicidins was determined as the minimum inhibitory concentration (MIC), which was the lowest concentration of cathelicidin that prevented visible bacterial or fungal growth, relative to the negative control. […] Minimum bactericidal concentration (MBC) and/or minimum fungicidal concentration (MFC) was conducted to determine microbicidal versus static action. Activity against S. aureus ATCC, E. coli ATCC, and Pseudomonas aeruginosa ATCC 27853 was examined in the presence of divalent cations to determine the impact of inhibitors.
# (§3) Antimicrobial activity was determined using a broth microdilution susceptibility assay in 96 well polypropylene plates according to Clinical Laboratory Standards Institute guidelines M07-A and M26A as described previously ([33], [42], [43]). The bacterial and fungal isolates from humans and animals used in this study are outlined in Supplementary Table 4 . Only yeasts were included in the panel of fungi as they have been used in the susceptibility testing of eutherian ([3], [81]–[83]) and other marsupial cathelicidins previously ([33], [42], [43]). Cathelicidin mature peptides were solubilized in DMSO and serially diluted in duplicate from 128-0.25μg/mL in a final volume of 100µL. For bacteria, cathelicidins were diluted in Mueller Hinton Broth (MHB) with or without 10% lysed horse blood, and with (MH II B) or without (MHB) calcium and magnesium cations. For fungi, cathelicidins were diluted in Roswell Park Memorial Institute medium (RPMI)-1640 MOPS. Ampicillin or tetracycline were included as a positive control for Gram-positive and -negative bacteria respectively, while amphotericin B was used for fungi. A media-only negative control and growth control (no cathelicidin) were also included on each plate. Bacteria were sub-cultured on Muller Hinton agar (MHA) or sheep blood agar (BA), and fungi on Sabouraud dextrose agar (SAB), 20–24 hours prior to the test. Colonies were suspended in saline, the concentration adjusted to a 0.5 McFarland standard, and then diluted in media to a concentration of 1.0 x 10^6 cells/mL. Then, 100μL was added to each well of the cathelicidin dilution plate, giving a final inoculum density of 5 x 10^5 CFU/mL and cathelicidin concentration of 64-0.125μg/mL. Colony counts were performed on MHA/BA/SAB to confirm inoculum density. All plates were incubated at 35°C for 20–24 hours, depending on the strain.
# (§4) Colonies were counted and compared to the colony count of the starting inoculum.
# [8] = tested on: Staphylococcus aureus clinical isolate – animal, penicillin-resistant (PRSA)
# Method: as §2, §3, §4
# [9] = tested on: Candida parapsilosis ATCC 22019; experiment: microbe, parasite or virus in culture; conditions: for MIC: read-out: MIC C. parapsilosis ATCC
# Summary of the method: (§5)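 Broth microdilution per CLSI M07-A/M26A; cathelicidin peptides tested at final 64-0.125μg/mL, inoculum 5 x 10^5 CFU/mL, 35°C for 20–24 hours. Bacteria in MHB (±10% lysed horse blood, ±Ca/Mg), yeasts in RPMI-1640 MOPS. MIC = lowest concentration preventing visible growth.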
# [10] = tested on: Streptococcus pneumoniae ATCC 49619; experiment: microbe, parasite or virus in culture
# Summary of the method: as §5
# [11] = tested on: Streptococcus agalactiae ATCC 12386; experiment: microbe, parasite or virus in culture
# Summary of the method: as §5
# [12] = tested on: Streptococcus agalactiae Clinical isolate - animal; experiment: microbe, parasite or virus in culture
# Summary of the method: as §5
# [13] = tested on: Candida albicans Clinical isolate - human; experiment: microbe, parasite or virus in culture
# Summary of the method: as §5
# Candida krusei ATCC 6258 = experiment: microbe, parasite or virus in culture
# Summary of the method: as §5
# [14] = clinical isolate – animal, methicillin-resistant
# [15] = clinical isolate – animal, penicillin-resistant (PRSA)
# [16] = clinical isolate, value in brackets, µM equivalent of Table 3
# [17] = clinical isolate, µM equivalent of Table 3
# [18] = value in brackets, µM equivalent of Table 3
# [19] = clinical isolate, superscript value, cation-adjusted Mueller Hinton broth, µM equivalent
# [20] = value in brackets, µM version of Table 4
smiles,measurement,setting,value
CC[C@H](C)[C@H](NC(=O)[C@H](CCCNC(=N)N)NC(=O)CNC(=O)[C@H](CCCNC(=N)N)NC(=O)[C@@H](N)CCCCN)C(=O)N[C@@H](Cc1ccccc1)C(=O)N[C@@H](CCCNC(=N)N)C(=O)N[C@@H](CCCCN)C(=O)N[C@@H](Cc1ccccc1)C(=O)N[C@@H](CCCCN)C(=O)N[C@@H](CCCCN)C(=O)N[C@@H](CC(C)C)C(=O)N[C@@H](CC(C)C)C(=O)N[C@@H](CCCCN)C(=O)N[C@@H](CCCCN)C(=O)N[C@@H](CC(C)C)C(=O)NCC(=O)N[C@@H](CC(=O)O)C(=O)N[C@@H](CCCCN)C(=O)N[C@H](C(=O)N[C@@H](CCCCN)C(=O)N[C@@H](CC(N)=O)C(=O)N[C@H](C(=O)N[C@@H](CC(C)C)C(=O)N[C@@H](CCCCN)C(=O)N[C@@H](CC(N)=O)C(=O)N[C@@H](C)C(=O)N[C@@H](CCCNC(=N)N)C(=O)N[C@@H](CC(N)=O)C(=O)NCC(=O)N[C@@H](Cc1ccccc1)C(=O)N[C@@H](CC(C)C)C(=O)NCC(=O)N1CCC[C@H]1C(=O)N[C@H](C(=O)NCC(=O)N[C@@H](CCCNC(=N)N)C(=O)O)[C@@H](C)CC)[C@@H](C)O)[C@@H](C)CC [MAP8] (H-KRGRIFRKFKKLLKKLGDKIKNTLKNARNGFLGPIGR-OH),MBC P. aeruginosa,[1]; clinical isolate - animal,7.4 µM
same,MIC,"[1]; clinical isolate - animal, read-out: MIC P. aeruginosa",3.7 µM
same,MIC,"[1]; clinical isolate - animal, read-out: MIC in the presence of cations P. aeruginosa",3.7 µM
same,MBC P. aeruginosa ATCC,[2]; ATCC 27853,3.7 (3.7)^3.7 µM
same,MIC P. aeruginosa ATCC,[2]; ATCC 27853,3.7 (3.7)^3.7 µM
same,MIC in the presence of cations P. aeruginosa ATCC,[2]; ATCC 27853,3.7 (3.7)^3.7 µM
same,MBC S. aureus,[3]; clinical isolate - animal,7.4 (7.4)^7.4 µM
same,MIC S. aureus,[3]; clinical isolate - animal,7.4 (7.4)^7.4 µM
same,MIC in the presence of cations S. aureus,[3]; clinical isolate - animal,7.4 (7.4)^7.4 µM
same,MBC E. coli ATCC,[4]; ATCC 25922,7.4 µM
same,MIC,"[4]; ATCC 25922, read-out: MIC E. coli ATCC",3.7 µM
same,MIC,"[4]; ATCC 25922, read-out: MIC in the presence of cations E. coli ATCC",3.7 µM
same,MBC S. aureus ATCC,[5]; ATCC 29213,7.4 (7.4)^7.4 µM
same,MIC S. aureus ATCC,[5]; ATCC 29213,7.4 (7.4)^7.4 µM
same,MIC in the presence of cations S. aureus ATCC,[5]; ATCC 29213,7.4 (7.4)^7.4 µM
same,MBC E. coli,[6]; clinical isolate - animal,3.7 µM
same,MIC,[6]; clinical isolate - animal,3.7 µM
same,MIC in the presence of cations E. coli,[6]; clinical isolate - animal,1.8 µM
same,MBC MRSA,[7]; [14],> 14.8 µM
same,MIC MRSA,[7]; [14],14.8 µM
same,MBC PRSA,[8]; [15],7.4 µM
same,MIC PRSA,[8]; [15],3.7 µM
same,MIC,[9]; ATCC 22019,7.4 µM
same,MBC S. pneumoniae ATCC,[10]; ATCC 49619,7.4 µM
same,MIC S. pneumoniae ATCC,[10]; ATCC 49619,7.4 µM
same,MBC S. agalactiae ATCC,[11]; ATCC 12386,14.8 µM
same,MIC S. agalactiae ATCC,[11]; ATCC 12386,14.8 µM
same,MBC S. agalactiae,[12]; clinical isolate - animal,7.4 µM
same,MIC S. agalactiae,[12]; clinical isolate - animal,7.4 µM
same,MIC C. albicans,[13]; Clinical isolate - human,>64 µg/mL
same,MFC C. krusei ATCC,Candida krusei ATCC 6258; ATCC 6258,> 64 µg/mL
CC[C@H](C)[C@H](NC(=O)[C@H](CCCCN)NC(=O)[C@H](Cc1ccccc1)NC(=O)[C@H](CC(N)=O)NC(=O)[C@H](CCCCN)NC(=O)[C@H](CC(C)C)NC(=O)[C@H](CCCNC(=N)N)NC(=O)[C@H](CCCCN)NC(=O)[C@H](CCCCN)NC(=O)[C@@H](NC(=O)[C@H](CO)NC(=O)[C@H](CC(=O)O)NC(=O)CNC(=O)[C@H](Cc1ccccc1)NC(=O)[C@H](CCCCN)NC(=O)[C@H](CCCCN)NC(=O)[C@H](CC(C)C)NC(=O)[C@H](CCCCN)NC(=O)[C@H](CCCCN)NC(=O)[C@H](CCCCN)NC(=O)[C@H](CC(C)C)NC(=O)[C@H](CO)NC(=O)[C@H](CCCCN)NC(=O)[C@H](Cc1c[nH]c2ccccc12)NC(=O)[C@H](CC(C)C)NC(=O)CNC(=O)[C@H](CCCNC(=N)N)NC(=O)[C@@H](N)CCCCN)[C@@H](C)CC)C(=O)NCC(=O)N[C@@H](Cc1ccccc1)C(=O)N1CCC[C@H]1C(=O)N[C@H](C(=O)N1CCC[C@H]1C(=O)N[C@@H](CC(C)C)C(=O)O)[C@@H](C)CC [MAP14] (H-KRGLWKSLKKKLKKFGDSIKKRLKNFKIGFPIPL-OH),MBC P. aeruginosa,[1]; [16],3.9 (3.9)^3.9 µM
same,MIC P. aeruginosa,[1]; [17],3.9 (3.9)^3.9 µM
same,MIC,"[2]; superscript value, cation-adjusted Mueller Hinton broth, µM equivalent, read-out: MIC in the presence of cations P. aeruginosa ATCC",1.9 µM
same,MBC P. aeruginosa ATCC,[2]; [18],3.9 µM
same,MIC,"[2]; µM equivalent of Table 3, read-out: MIC P. aeruginosa ATCC",3.9 µM
same,MIC in the presence of cations S. aureus,[3]; [19],7.9 (7.9)^7.9 µM
same,MBC S. aureus,[3]; [16],7.9 (7.9)^7.9 µM
same,MIC S. aureus,[3]; [17],7.9 (7.9)^7.9 µM
same,MIC in the presence of cations E. coli ATCC,"[4]; superscript value, cation-adjusted Mueller Hinton broth, µM equivalent",1.9 (1.9)^1.9 µM
same,MBC E. coli ATCC,[4]; [18],1.9 (1.9)^1.9 µM
same,MIC E. coli ATCC,[4]; µM equivalent of Table 3,1.9 (1.9)^1.9 µM
same,MIC in the presence of cations S. aureus ATCC,"[5]; superscript value, cation-adjusted Mueller Hinton broth, µM equivalent of Table 3",7.9 (7.9)^7.9 µM
same,MBC S. aureus ATCC,[5]; [18],7.9 (7.9)^7.9 µM
same,MIC S. aureus ATCC,[5]; µM equivalent of Table 3,7.9 (7.9)^7.9 µM
same,MIC in the presence of cations E. coli,"[6]; clinical isolate, superscript value, cation-adjusted Mueller Hinton broth",4 µg/mL
same,MIC in the presence of cations E. coli,[6]; [19],0.9 µM
same,MBC E. coli,[6]; [16],1.9 µM
same,MIC,[6]; [17],1.9 µM
same,MBC MRSA,[7]; [18],15.8 µM
same,MIC MRSA,[7]; µM equivalent of Table 3,15.8 µM
same,MBC PRSA,[8]; [18],3.9 µM
same,MIC PRSA,[8]; µM equivalent of Table 3,3.9 µM
same,MFC C. parapsilosis ATCC,[9]; [20],7.9 µM
same,MIC,[9]; µM version of Table 4,3.9 µM
same,MBC S. pneumoniae ATCC,[10]; [18],7.9 µM
same,MIC S. pneumoniae ATCC,[10]; µM equivalent of Table 3,7.9 µM
same,MBC S. agalactiae ATCC,[11]; [18],15.8 µM
same,MIC S. agalactiae ATCC,[11]; µM equivalent of Table 3,15.8 µM
same,MBC S. agalactiae,[12]; [16],7.9 µM
same,MIC S. agalactiae,[12]; [17],7.9 µM
same,MIC,"[13]; clinical isolate, µM version of Table 4, read-out: MIC C. albicans",>15.8 µM
same,MFC C. krusei ATCC,Candida krusei ATCC 6258; [20],> 15.8 µM
same,MIC C. krusei ATCC,Candida krusei ATCC 6258; µM version of Table 4,15.8 µM
